Experimental data published in US20150175599A1, “FAAH Inhibitors” (Ironwood Pharmaceuticals, Inc., priority 2010, published 2015).

Target: T1, human FAAH-1 (Homo sapiens, UniProt O00519)
T1 sequence (O00519 1-579): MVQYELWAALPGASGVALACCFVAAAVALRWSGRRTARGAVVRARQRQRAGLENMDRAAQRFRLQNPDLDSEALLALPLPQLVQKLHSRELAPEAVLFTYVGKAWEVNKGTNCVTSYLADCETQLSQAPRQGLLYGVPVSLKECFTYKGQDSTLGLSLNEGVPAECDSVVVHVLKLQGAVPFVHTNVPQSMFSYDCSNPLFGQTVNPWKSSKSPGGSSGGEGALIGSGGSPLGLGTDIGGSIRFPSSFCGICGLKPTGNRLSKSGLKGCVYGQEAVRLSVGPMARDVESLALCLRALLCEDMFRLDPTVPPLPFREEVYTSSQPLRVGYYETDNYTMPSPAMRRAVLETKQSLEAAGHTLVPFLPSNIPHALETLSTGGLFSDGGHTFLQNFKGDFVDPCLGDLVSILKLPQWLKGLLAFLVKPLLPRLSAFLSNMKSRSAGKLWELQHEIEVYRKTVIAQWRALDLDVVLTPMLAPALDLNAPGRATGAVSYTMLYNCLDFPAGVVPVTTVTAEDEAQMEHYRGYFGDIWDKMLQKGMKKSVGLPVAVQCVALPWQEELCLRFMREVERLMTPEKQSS
Assay: Whole cell anandamide hydrolysis assay (HeLa clone 5c5 transfected with human FAAH-1)
Type: cell-based
Settings: HeLa clone 5c5 expressing human FAAH-1; read-out: human FAAH whole cell IC50
In short: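 Stable HeLa clone 5c5 expressing human FAAH-1, pre-incubated with compound 10 min at 37° C in DMEM/F12 with 15 mM HEPES pH 7.4 and 0.1% fatty-acid-free BSA. [3H]-anandamide (5 μM stock) added for 15 min; [3H]-ethanolamine separated on charcoal and counted. IC50 from curves constrained to 100% and 0%.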

SMILES	IC50 [nM]
COc1ccc2c(c1)c(C(=O)C(=O)Nc1ccnc(OC)c1)c(C)n2Cc1ncccn1 [Compound 83, 2-(5-methoxy-2-methyl-1-(pyrimidin-2-ylmethyl)-1H-indol-3-yl)-N-(2-methoxypyridin-4-yl)-2-oxoacetamide]	100 to 1000
COc1ccc2c(c1)c(C(=O)C(=O)Nc1ccnc(OC)c1)c(C)n2Cc1ccc(Cl)cn1 [Compound 79, 2-(1-((5-chloropyridin-2-yl)methyl)-5-methoxy-2-methyl-1H-indol-3-yl)-N-(2-methoxypyridin-4-yl)-2-oxoacetamide]	< 100
COc1ccc2c(c1)c(C(=O)C(=O)Nc1ccnc(OC)c1)c(C)n2Cc1ncc(F)cc1F [Compound 81, 2-(1-((3,5-difluoropyridin-2-yl)methyl)-5-methoxy-2-methyl-1H-indol-3-yl)-N-(2-methoxypyridin-4-yl)-2-oxoacetamide]	< 100
COc1cc(NC(=O)C(=O)c2c(C)n(Cc3ccc(Cl)cc3)c3cc(F)c(C)cc23)ccn1 [Compound 89, 2-(1-(4-chlorobenzyl)-6-fluoro-2,5-dimethyl-1H-indol-3-yl)-N-(2-methoxypyridin-4-yl)-2-oxoacetamide]	< 100
COc1cc(NC(=O)C(=O)c2c(C)n(Cc3ccc(Cl)cc3)c3ccc(C(=O)O)cc23)ccn1 [Compound 4, 1-(4-chlorobenzyl)-3-(2-(2-methoxypyridin-4-ylamino)-2-oxoacetyl)-2-methyl-1H-indole-5-carboxylic acid]	1000 to 10000
COc1ccc2c(c1)c(C(=O)C(=O)Nc1ccnc(OC)c1)c(C)n2Cc1cccnc1 [Compound 78, 2-(5-methoxy-2-methyl-1-(pyridin-3-ylmethyl)-1H-indol-3-yl)-N-(2-methoxypyridin-4-yl)-2-oxoacetamide]	< 100
COc1cc(NC(=O)C(=O)c2c(C)n(Cc3ccc(Cl)cc3F)c3cc(F)c(OC)cc23)ccn1 [Compound 91, 2-(1-(4-chloro-2-fluorobenzyl)-6-fluoro-5-methoxy-2-methyl-1H-indol-3-yl)-N-(2-methoxypyridin-4-yl)-2-oxoacetamide]	< 100
COc1ccc2c(c1)c(C(=O)C(=O)Nc1ccnc(OC)c1)c(C)n2Cc1ncc(Cl)cc1F [Compound 87, 2-(1-((5-chloro-3-fluoropyridin-2-yl)methyl)-5-methoxy-2-methyl-1H-indol-3-yl)-N-(2-methoxypyridin-4-yl)-2-oxoacetamide]	< 100
COc1cc(NC(=O)C(=O)c2c(C)n(Cc3ccc(Cl)cn3)c3cc(Cl)c(C)cc23)ccn1 [Compound 94, 2-(6-chloro-1-((5-chloropyridin-2-yl)methyl)-2,5-dimethyl-1H-indol-3-yl)-N-(2-methoxypyridin-4-yl)-2-oxoacetamide]	< 100
COc1cc(NC(=O)C(=O)c2c(C)n(Cc3ccc(Cl)cc3)c3cc(Cl)c(C)cc23)ccn1 [Compound 93, 2-(6-chloro-1-(4-chlorobenzyl)-2,5-dimethyl-1H-indol-3-yl)-N-(2-methoxypyridin-4-yl)-2-oxoacetamide]	< 100
COc1ccc2c(c1)c(C(=O)C(=O)Nc1ccnc(OC)c1)c(C)n2Cc1ccc(C)cn1 [Compound 84, 2-(5-methoxy-2-methyl-1-((5-methylpyridin-2-yl)methyl)-1H-indol-3-yl)-N-(2-methoxypyridin-4-yl)-2-oxoacetamide]	< 100
COc1cc(NC(=O)C(=O)c2c(C)n(Cc3ccc(Cl)cc3)c3cc(OC)c(Cl)cc23)ccn1 [Compound 80, 2-(5-chloro-1-(4-chlorobenzyl)-6-methoxy-2-methyl-1H-indol-3-yl)-N-(2-methoxypyridin-4-yl)-2-oxoacetamide]	< 100
COc1cc(NC(=O)C(=O)c2c(C)n(Cc3ccc(Cl)cn3)c3cc(F)c(C)cc23)ccn1 [Compound 90, 2-(1-((5-chloropyridin-2-yl)methyl)-6-fluoro-2,5-dimethyl-1H-indol-3-yl)-N-(2-methoxypyridin-4-yl)-2-oxoacetamide]	< 100
COc1ccc2c(c1)c(C(=O)C(=O)Nc1ccnc(OC)c1)c(C)n2Cc1ncc(Cl)cc1Cl [Compound 82, 2-(1-((3,5-dichloropyridin-2-yl)methyl)-5-methoxy-2-methyl-1H-indol-3-yl)-N-(2-methoxypyridin-4-yl)-2-oxoacetamide]	< 100
COc1cc(NC(=O)C(=O)c2c(C)n(Cc3ccc(Cl)cc3)c3cccnc23)ccn1 [Compound 3, 2-(1-(4-chlorobenzyl)-2-methyl-1H-pyrrolo[3,2-b]pyridin-3-yl)-N-(2-methoxypyridin-4-yl)-2-oxoacetamide]	< 100
COc1ccc2c(c1)c(C(=O)C(=O)Nc1ccnc(OC)c1)c(C)n2Cc1ccc(Cl)nn1 [Compound 86, 2-(1-((6-chloropyridazin-3-yl)methyl)-5-methoxy-2-methyl-1H-indol-3-yl)-N-(2-methoxypyridin-4-yl)-2-oxoacetamide]	< 100
COc1cc(NC(=O)C(=O)c2c(C)n(Cc3ccc(F)cn3)c3ccc(C)cc23)ccn1 [Compound 85, 2-(1-((5-fluoropyridin-2-yl)methyl)-2,5-dimethyl-1H-indol-3-yl)-N-(2-methoxypyridin-4-yl)-2-oxoacetamide]	< 100
COc1cc(NC(=O)C(=O)c2c(C)n(Cc3ccc(Cl)cc3Cl)c3cc(F)c(OC)cc23)ccn1 [Compound 92, 2-(1-(2,4-dichlorobenzyl)-6-fluoro-5-methoxy-2-methyl-1H-indol-3-yl)-N-(2-methoxypyridin-4-yl)-2-oxoacetamide]	< 100
